In US20230015541A1, “16% Sodium Citrate Solution for Use as an Antimicrobial Catheter Lock Solution” (Becton, Dickinson and Company, priority 2021, published 2023):

Columns and labels:
[1] = test system: S. aureus (Gram-positive bacteria); experiment: Growth inhibition timeframe at various concentrations of sodium citrate; type: cell-based, Staphylococcus aureus; conditions: through 24 hours; for growth of S. aureus: pH 6.4-7.5
Experimental: FIG. 3 is a table showing growth inhibition timeframe of Gram-positive Staphylococcus aureus exposed to various concentrations of sodium citrate.
(§1) In vitro testing was conducted with various concentrations of sodium citrate on S. aureus (Gram-positive bacteria) (FIG. 3), P. aeruginosa (Gram-negative bacteria) (FIG. 4), and yeast, C. albicans (FIG. 5). Testing was conducted as set forth in ‘Methods for Dilution Antimicrobial Susceptibility Tests for Bacteria That Grow Aerobically,’ 11th Edition, Clinical and Laboratory Standards Institute (2018), ‘Methods for Determining Bactericidal Activity of Antimicrobial Agents' Approved Guideline.’ Vol. 12, No. 9, Clinical and Laboratory Standards Institute (1999), and ‘Development of In Vitro Susceptibility Testing Criteria and Quality Control Parameters; Approved Guideline-Second Edition,’ Vol. 21, No. 7, Clinical and Laboratory Standards Institute (2001). Briefly, trisodium citrate salt was compounded using purified water and the pH was adjusted, if necessary, with hydrochloric acid to provide a composition with a pH between 6.4 and 7.5. […] Due to this, it is expected that growth inhibition and possibly eradication can occur beyond 24 hours.

[2] = test system: P. aeruginosa (Gram-negative bacteria); experiment: as above; type: cell-based, Pseudomonas aeruginosa; conditions: through 24 hours; for growth of P. aeruginosa: pH 6.4-7.5
Experimental: FIG. 4 is a table showing growth inhibition timeframe of Gram-negative Pseudomonas aeruginosa exposed to various concentrations of sodium citrate.
as §1
Due to this, it is expected that growth inhibition and possibly eradication can occur beyond 24 hours.

yeast, C. albicans = experiment: as above; type: cell-based, Candida albicans; conditions: through 24 hours, pH 6.4-7.5
Experimental: FIG. 5 is a table showing growth inhibition timeframe of the fungus Candida albicans exposed to various concentrations of sodium citrate.
as §1

whole human blood = experiment: Anticoagulation effect in vitro as activated clotting time (ACT), Sonoclot analyzer; type: cell-based; conditions: 4% (w/v), versus controls (no solution and saline)
Experimental: The anticoagulation effect of a 4% sodium citrate lock solution was measured in vitro as activated clotting time (ACT) using whole human blood over 2 years. The anticoagulation effectiveness of 4% sodium citrate lock solution on whole blood was determined using the Sonoclot® Coagulation & Platelet Function Analyzer (Sienco Inc., Boulder Colo.), which can calculate the onset of clot formation by monitoring mechanical changes that occur in blood samples during hemostasis. The mechanism is a tubular probe that moves up and down within a blood sample. As the sample progresses through various stages of clotting, electronic circuitry (a transducer) detects increasing resistance. This produces a series of electronic signals that are processed by a microcomputer. The output is the total time of clot formation where the blood is more viscous than initially introduced.

Gram-positive bacteria = experiment: MIC determination of sodium citrate by broth microdilution; type: cell-based; conditions: 16% w/v sodium citrate, pH 6.4-7.5; concluded from MICs of FIGS. 2A and 2B
Experimental: (§2) In vitro testing was conducted with sodium citrate on samples of various microorganisms to determine a minimum inhibitory concentration (MIC) of sodium citrate (at pH 6.4-7.5) for those microorganisms. […] Testing was performed as set forth in ‘Methods for Dilution Antimicrobial Susceptibility Tests for Bacteria That Grow Aerobically,’ 11th Edition, Clinical and Laboratory Standards Institute (2018), ‘Methods for Determining Bactericidal Activity of Antimicrobial Agents' Approved Guideline.’ Vol. 12, No. 9, Clinical and Laboratory Standards Institute (1999), and ‘Development of In Vitro Susceptibility Testing Criteria and Quality Control Parameters; Approved Guideline-Second Edition,’ Vol. 21, No. 7, Clinical and Laboratory Standards Institute (2001).
(§3) For MIC determinations, sodium citrate was reconstituted and diluted to various working stock concentrations (8%, 10%, 12%, 14%, 16%, 20%, 24%, and 28% in deionized water and transferred into round-bottom 96-well microdilution plates. Three strains each of Gram-positive bacteria, Gram-negative bacteria, and yeast were obtained from the American Tissue Type Collection (ATCC) or the Centers for Disease Control Antibiotic Resistant (CDC AR) Isolate Bank. Cultures were grown on Trypticase Soy Agar (TSA, for bacteria) or Sabouraud Dextrose Agar (SDA, for yeast) and suspended in Mueller Hinton Broth to a final cell density of approximately 5×10^5 CFU/mL during exposure to sodium citrate. Following incubation at 35±2° C. for 24±2 h (bacteria) or 44±4 h (yeast), microdilution plates were visually examined for the presence or inhibition of growth.
(§4) As will be appreciated, the MIC is shown, thus testing of higher concentrations was deemed unnecessary, because if, for example 4% sodium citrate is the MIC for a given microorganism, then 16% would be at least as effective. Three (3) replicates were run for each bacteria evaluated and four (4) replicates were run for each fungi evaluated, using two (2) different growth media for the fungi. […]

yeast = experiment: as above; type: cell-based; conditions: 16% w/v sodium citrate, pH 6.4-7.5; concluded from MICs of FIGS. 2A and 2B
Experimental: as §2, §3, §4

Gram-negative bacteria = experiment: as above; type: cell-based; conditions: 16% w/v sodium citrate, pH 6.4-7.5; concluded from MICs of FIGS. 2A and 2B
Experimental: as §2, §3, §4

## O=C([O-])CC(O)(CC(=O)[O-])C(=O)[O-].[Na+].[Na+].[Na+] [sodium citrate, trisodium citrate]
[1]; 6% (w/v)
  bacteria count of S. aureus: decrease
  growth of S. aureus: does not grow
[1]; 8% (w/v)
  bacteria count of S. aureus: decrease
  growth of S. aureus: does not grow
[1]; 10% (w/v)
  bacteria count of S. aureus: decrease
  growth of S. aureus: does not grow
[2]; 10% (w/v)
  bacteria count of P. aeruginosa: decrease
  growth of P. aeruginosa: does not grow
[2]; 12% (w/v)
  bacteria count of P. aeruginosa: decrease
  growth of P. aeruginosa: does not grow
[2]; 14% (w/v)
  bacteria count of P. aeruginosa: decrease
  growth of P. aeruginosa: does not grow
yeast, C. albicans; 2% (w/v)
  growth of C. albicans: does not grow
yeast, C. albicans; 4% (w/v)
  growth of C. albicans: does not grow
yeast, C. albicans; 6% (w/v)
  growth of C. albicans: does not grow
Whole human blood
  time required for clot formation (activated clotting time): longer relative to the controls
Gram-positive bacteria
  growth and proliferation of Gram-positive bacteria: will prevent growth and proliferation
yeast
  growth and proliferation of yeast: will prevent growth and proliferation
Gram-negative bacteria
  growth and proliferation of Gram-negative bacteria: will prevent growth and proliferation
